In ChEMBL document CHEMBL5291721, “A preclinical secondary pharmacology resource illuminates target-adverse drug reaction associations of marketed drugs” (Nat Commun, 2023):

Key:
[1] = molecular target: T1, Endothelin receptor type B (Homo sapiens, UniProt P24530)
T1 sequence (P24530 whole entry): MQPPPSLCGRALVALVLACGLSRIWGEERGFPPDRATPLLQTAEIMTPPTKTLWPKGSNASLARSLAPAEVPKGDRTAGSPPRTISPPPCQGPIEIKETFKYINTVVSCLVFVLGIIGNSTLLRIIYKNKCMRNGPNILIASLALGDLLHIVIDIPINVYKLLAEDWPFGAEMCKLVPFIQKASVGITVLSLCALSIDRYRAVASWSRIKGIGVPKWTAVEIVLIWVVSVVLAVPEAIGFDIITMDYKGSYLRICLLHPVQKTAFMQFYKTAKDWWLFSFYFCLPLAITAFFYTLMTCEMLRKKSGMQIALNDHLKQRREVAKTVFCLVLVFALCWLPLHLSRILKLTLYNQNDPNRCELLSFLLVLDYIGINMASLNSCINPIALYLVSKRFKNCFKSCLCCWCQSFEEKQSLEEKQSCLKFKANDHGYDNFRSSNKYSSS

[2] = molecular target: T2, Corticotropin-releasing factor receptor 2 (Homo sapiens, UniProt Q13324)
T2 sequence (Q13324 whole entry): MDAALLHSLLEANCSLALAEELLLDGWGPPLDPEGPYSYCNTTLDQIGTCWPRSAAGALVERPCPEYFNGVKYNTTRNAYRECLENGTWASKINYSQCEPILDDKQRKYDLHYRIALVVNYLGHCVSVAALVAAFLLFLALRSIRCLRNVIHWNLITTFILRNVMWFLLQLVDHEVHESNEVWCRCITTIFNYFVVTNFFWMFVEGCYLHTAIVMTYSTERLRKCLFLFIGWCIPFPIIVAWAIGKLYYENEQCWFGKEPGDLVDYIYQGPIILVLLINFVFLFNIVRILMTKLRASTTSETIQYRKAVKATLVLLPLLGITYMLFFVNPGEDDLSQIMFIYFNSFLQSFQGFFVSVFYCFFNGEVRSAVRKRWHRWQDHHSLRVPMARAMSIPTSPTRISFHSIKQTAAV

Cannabinoid receptor 1 = Cannabinoid receptor 1 (Homo sapiens, UniProt P21554); assay type: functional
Sequence of Cannabinoid receptor 1 (P21554 whole entry): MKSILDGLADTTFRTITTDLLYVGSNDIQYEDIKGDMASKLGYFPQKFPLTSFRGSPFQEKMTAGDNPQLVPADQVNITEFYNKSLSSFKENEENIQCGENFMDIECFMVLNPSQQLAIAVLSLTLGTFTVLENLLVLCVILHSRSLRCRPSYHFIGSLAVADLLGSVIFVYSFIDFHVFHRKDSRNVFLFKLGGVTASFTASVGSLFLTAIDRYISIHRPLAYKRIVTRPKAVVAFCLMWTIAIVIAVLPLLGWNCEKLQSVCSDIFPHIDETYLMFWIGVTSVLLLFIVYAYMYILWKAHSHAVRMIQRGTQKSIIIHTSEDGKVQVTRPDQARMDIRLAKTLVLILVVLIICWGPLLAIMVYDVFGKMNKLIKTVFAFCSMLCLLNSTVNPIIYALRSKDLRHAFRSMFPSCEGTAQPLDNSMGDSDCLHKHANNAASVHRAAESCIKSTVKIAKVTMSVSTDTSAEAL

Glucagon receptor = Glucagon receptor (Homo sapiens, UniProt P47871)
Sequence of Glucagon receptor (P47871 whole entry): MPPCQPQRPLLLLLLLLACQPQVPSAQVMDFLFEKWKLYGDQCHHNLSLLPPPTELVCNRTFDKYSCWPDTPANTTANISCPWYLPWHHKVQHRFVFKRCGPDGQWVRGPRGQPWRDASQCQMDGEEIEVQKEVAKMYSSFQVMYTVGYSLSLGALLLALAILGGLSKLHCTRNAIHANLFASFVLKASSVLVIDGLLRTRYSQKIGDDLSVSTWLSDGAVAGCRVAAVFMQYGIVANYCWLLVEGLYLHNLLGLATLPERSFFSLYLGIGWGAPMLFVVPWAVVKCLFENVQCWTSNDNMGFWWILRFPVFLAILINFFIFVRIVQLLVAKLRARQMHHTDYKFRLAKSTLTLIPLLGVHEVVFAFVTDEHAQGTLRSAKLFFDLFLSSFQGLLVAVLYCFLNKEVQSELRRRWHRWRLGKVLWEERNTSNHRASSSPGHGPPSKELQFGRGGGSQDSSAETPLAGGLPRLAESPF

[3] = molecular target: T3, Neuropeptide Y receptor type 2 (Homo sapiens, UniProt P49146)
T3 sequence (P49146 whole entry): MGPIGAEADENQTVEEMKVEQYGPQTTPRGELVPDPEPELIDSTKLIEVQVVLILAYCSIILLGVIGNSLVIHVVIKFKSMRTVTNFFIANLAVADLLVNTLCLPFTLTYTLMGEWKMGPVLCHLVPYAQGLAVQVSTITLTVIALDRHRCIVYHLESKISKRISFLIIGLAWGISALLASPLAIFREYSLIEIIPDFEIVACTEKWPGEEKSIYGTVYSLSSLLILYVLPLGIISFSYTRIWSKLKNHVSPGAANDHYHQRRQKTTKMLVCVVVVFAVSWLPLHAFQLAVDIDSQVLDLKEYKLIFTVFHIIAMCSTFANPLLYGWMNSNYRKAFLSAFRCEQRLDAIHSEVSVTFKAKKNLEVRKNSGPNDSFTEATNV

[4] = molecular target: 5-hydroxytryptamine receptor 6 (Homo sapiens, UniProt P50406)
Sequence of 5-hydroxytryptamine receptor 6 (P50406 whole entry): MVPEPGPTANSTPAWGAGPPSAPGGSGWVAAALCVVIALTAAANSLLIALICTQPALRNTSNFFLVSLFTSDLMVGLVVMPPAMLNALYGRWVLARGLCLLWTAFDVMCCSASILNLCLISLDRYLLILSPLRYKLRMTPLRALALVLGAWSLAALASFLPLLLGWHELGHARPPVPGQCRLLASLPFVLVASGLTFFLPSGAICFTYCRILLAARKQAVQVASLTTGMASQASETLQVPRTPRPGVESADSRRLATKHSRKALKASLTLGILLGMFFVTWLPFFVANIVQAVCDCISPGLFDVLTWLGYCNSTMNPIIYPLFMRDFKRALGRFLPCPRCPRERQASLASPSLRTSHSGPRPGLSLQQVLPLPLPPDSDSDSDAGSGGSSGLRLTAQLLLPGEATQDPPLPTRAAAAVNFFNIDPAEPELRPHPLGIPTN

[5] = molecular target: T4, Gamma-aminobutyric acid receptor subunit alpha-1/alpha-2/beta-2/gamma-2 (Homo sapiens, UniProt P14867+P18507+P47869+P47870); assay type: functional, cell-based
T4 sequence (P14867 whole entry): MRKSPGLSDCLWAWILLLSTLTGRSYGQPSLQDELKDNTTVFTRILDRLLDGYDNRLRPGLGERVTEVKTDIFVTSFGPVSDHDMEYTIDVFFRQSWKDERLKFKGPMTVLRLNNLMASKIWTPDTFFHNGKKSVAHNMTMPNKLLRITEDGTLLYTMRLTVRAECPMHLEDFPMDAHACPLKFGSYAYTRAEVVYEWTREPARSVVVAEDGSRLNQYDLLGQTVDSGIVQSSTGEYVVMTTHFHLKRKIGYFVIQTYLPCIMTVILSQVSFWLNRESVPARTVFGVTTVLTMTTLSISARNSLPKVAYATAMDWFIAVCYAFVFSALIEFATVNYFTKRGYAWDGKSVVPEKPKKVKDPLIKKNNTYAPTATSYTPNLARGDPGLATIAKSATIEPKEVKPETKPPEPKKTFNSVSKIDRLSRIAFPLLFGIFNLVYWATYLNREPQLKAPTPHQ
T4 sequence (P47870 whole entry): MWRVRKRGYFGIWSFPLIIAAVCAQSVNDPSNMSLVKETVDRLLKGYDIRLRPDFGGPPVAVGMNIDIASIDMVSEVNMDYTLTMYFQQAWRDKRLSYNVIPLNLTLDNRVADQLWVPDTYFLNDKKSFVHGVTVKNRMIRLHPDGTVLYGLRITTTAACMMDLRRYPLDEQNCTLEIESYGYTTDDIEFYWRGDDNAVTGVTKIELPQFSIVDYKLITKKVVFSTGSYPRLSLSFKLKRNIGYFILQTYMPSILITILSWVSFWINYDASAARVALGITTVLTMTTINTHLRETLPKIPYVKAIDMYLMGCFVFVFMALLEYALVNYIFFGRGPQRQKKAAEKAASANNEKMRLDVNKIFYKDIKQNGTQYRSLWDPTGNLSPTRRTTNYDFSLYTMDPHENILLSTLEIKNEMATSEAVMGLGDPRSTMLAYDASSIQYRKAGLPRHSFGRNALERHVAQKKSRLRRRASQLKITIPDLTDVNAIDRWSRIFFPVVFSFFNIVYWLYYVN
T4 sequence (P18507 whole entry): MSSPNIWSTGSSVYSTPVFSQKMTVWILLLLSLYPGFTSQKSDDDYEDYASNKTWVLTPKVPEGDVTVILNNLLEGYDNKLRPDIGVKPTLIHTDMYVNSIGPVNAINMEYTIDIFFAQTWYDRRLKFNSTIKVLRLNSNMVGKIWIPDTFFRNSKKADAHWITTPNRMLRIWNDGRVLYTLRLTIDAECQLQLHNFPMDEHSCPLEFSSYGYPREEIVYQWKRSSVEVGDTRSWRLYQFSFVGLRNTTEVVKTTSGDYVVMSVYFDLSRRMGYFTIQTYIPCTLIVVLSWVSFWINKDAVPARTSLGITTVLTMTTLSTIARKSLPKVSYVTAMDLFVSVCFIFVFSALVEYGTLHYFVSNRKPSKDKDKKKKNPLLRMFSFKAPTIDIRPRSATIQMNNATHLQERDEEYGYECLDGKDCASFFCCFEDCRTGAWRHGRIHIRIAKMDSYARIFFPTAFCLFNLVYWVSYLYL
T4 sequence (P47869 whole entry): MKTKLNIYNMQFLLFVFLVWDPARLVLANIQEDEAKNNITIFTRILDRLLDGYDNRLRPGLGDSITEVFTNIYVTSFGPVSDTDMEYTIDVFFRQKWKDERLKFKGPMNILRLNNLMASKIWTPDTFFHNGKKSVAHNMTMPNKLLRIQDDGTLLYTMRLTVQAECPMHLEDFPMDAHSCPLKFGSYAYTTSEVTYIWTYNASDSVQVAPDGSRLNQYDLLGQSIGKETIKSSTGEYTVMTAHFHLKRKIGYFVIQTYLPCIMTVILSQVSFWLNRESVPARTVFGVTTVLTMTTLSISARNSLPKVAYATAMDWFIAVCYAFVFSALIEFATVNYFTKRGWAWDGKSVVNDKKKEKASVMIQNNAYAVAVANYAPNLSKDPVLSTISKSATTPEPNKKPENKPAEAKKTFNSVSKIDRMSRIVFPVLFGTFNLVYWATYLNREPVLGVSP

[6] = molecular target: T4, Gamma-aminobutyric acid receptor subunit alpha-1/alpha-2/beta-2/gamma-2; assay type: functional, cell-based; remark: listed apart in the source
[7] = molecular target: T5, Corticotropin-releasing factor receptor 1 (Homo sapiens, UniProt P34998)
T5 sequence (P34998 whole entry): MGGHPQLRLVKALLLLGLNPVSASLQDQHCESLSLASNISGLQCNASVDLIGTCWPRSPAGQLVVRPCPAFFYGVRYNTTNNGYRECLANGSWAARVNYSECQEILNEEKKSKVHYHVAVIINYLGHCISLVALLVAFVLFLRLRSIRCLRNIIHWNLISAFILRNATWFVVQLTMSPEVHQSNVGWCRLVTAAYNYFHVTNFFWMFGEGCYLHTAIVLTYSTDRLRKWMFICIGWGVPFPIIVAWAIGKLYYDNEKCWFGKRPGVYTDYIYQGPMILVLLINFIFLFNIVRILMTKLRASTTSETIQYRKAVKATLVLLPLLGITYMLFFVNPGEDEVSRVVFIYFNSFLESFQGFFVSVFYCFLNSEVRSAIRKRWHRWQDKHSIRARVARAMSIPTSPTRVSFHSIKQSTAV

Histamine H2 receptor = Histamine H2 receptor (Homo sapiens, UniProt P25021)
Sequence of Histamine H2 receptor (P25021 whole entry): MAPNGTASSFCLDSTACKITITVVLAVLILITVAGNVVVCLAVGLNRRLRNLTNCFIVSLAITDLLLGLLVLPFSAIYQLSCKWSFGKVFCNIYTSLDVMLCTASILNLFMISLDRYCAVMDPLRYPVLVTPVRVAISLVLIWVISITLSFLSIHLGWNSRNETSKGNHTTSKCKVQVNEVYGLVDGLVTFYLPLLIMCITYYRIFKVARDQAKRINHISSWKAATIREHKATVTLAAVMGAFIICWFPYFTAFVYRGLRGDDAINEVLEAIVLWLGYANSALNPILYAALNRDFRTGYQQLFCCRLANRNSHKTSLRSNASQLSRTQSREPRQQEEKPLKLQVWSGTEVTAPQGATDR

[8] = molecular target: Sodium channel protein type 5 subunit alpha (Homo sapiens, UniProt Q14524); assay type: functional, cell-based
[9] = molecular target: T6, Muscarinic acetylcholine receptor M2 (Homo sapiens, UniProt P08172)
T6 sequence (P08172 whole entry): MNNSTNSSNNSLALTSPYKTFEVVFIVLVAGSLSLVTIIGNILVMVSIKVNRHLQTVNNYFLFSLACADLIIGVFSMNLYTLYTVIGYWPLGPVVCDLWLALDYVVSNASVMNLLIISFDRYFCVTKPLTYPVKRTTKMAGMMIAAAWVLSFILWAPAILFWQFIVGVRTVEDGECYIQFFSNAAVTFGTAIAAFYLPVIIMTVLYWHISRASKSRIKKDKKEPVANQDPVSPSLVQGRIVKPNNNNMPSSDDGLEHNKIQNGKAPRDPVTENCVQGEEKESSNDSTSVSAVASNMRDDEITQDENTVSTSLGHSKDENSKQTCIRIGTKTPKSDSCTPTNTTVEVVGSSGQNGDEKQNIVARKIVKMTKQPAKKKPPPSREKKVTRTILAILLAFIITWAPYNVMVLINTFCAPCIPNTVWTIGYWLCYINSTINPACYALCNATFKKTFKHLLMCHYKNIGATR

[10] = molecular target: Beta-1 adrenergic receptor (Homo sapiens, UniProt P08588); assay type: functional, cell-based
Sequence of Beta-1 adrenergic receptor (P08588 whole entry): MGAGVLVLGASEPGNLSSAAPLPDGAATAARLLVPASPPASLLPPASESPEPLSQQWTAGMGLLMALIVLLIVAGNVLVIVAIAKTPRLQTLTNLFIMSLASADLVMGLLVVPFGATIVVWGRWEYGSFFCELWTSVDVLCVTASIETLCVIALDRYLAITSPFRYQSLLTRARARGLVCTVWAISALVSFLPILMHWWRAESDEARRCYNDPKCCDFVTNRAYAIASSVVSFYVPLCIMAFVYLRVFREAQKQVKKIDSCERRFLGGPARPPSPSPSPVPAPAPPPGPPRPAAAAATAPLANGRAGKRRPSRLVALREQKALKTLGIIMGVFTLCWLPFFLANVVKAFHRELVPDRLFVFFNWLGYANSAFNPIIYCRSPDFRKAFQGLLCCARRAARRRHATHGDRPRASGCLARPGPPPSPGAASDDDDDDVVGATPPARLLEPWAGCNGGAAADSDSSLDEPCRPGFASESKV
Further: assay procedure not described here.

CNS(=O)(=O)Cc1ccc2[nH]cc(CCN(C)C)c2c1
AC50 [1]: > 30 µM | AC50 [2]: > 30 µM | AC50 (Cannabinoid receptor 1): > 10 µM | AC50 (Glucagon receptor): > 30 µM | AC50 [3]: > 30 µM | AC50 [4]: > 10 µM | AC50 [5]: > 30 µM | AC50 [6]: > 30 µM | AC50 [7]: > 30 µM | AC50 (Histamine H2 receptor): > 10 µM

CC(=O)O[C@H]1CC[C@@]2(C)C(=CC[C@@H]3[C@@H]2CC[C@]2(C)C(c4cccnc4)=CC[C@@H]32)C1 [ABIRATERONE ACETATE]
AC50 [8]: > 30 µM

NCC(=O)CCC(=O)O [AMINOLEVULINIC ACID]
AC50 [5]: > 30 µM | AC50 [6]: > 30 µM

COC(=O)C1=C(C)NC(C)=C(C(=O)OC2CCCN(Cc3ccccc3)C2)C1c1cccc([N+](=O)[O-])c1 (configuration not stated) [BENIDIPINE]
AC50 [8]: > 50 µM

CCN1CCN(C(=O)N[C@@H](C(=O)N[C@@H]2C(=O)N3C(C(=O)O)=C(CSc4nnnn4C)CS[C@H]23)c2ccc(O)cc2)C(=O)C1=O [CEFOPERAZONE]
AC50 [5]: > 30 µM | AC50 [6]: > 30 µM

COc1ccc2c3c1O[C@H]1[C@@H](O)C=C[C@H]4[C@@H](C2)N(C)CC[C@@]341 [CODEINE]
AC50 [1]: > 30 µM | AC50 [2]: > 30 µM | AC50 (Cannabinoid receptor 1): > 10 µM | AC50 (Glucagon receptor): > 30 µM | AC50 [3]: > 30 µM | AC50 [8]: > 30 µM | AC50 [4]: > 10 µM | AC50 [9]: > 10 µM | AC50 [7]: > 30 µM | AC50 (Histamine H2 receptor): > 10 µM

Cn1c(=O)c2c(ncn2CC2OCCO2)n(C)c1=O [DOXOFYLLINE]
AC50 [10]: > 30 µM

CCCCc1ncc(/C=C(\Cc2cccs2)C(=O)O)n1Cc1ccc(C(=O)O)cc1 [EPROSARTAN]
AC50 [1]: > 30 µM | AC50 [2]: > 30 µM | AC50 (Cannabinoid receptor 1): > 10 µM | AC50 (Glucagon receptor): > 30 µM | AC50 [3]: > 30 µM | AC50 [4]: > 10 µM | AC50 [9]: > 10 µM | AC50 [7]: > 30 µM | AC50 (Histamine H2 receptor): > 10 µM

CCc1c(Cl)c(O)c(Cl)c(O)c1C(=O)O[C@H]1[C@H](O)[C@H](OC)[C@H](OC/C2=C\C=C\C[C@H](O)/C(C)=C/[C@H](CC)[C@@H](O[C@@H]3OC(C)(C)[C@@H](OC(=O)C(C)C)[C@H](O)[C@@H]3O)/C(C)=C/C(C)=C/C[C@@H]([C@@H](C)O)OC2=O)O[C@@H]1C [FIDAXOMICIN]
AC50 [1]: > 30 µM | AC50 [2]: > 30 µM | AC50 (Glucagon receptor): > 30 µM | AC50 [3]: > 30 µM | AC50 [9]: > 10 µM | AC50 [7]: > 30 µM | AC50 (Histamine H2 receptor): > 10 µM

COc1ccc(CCN(C)CCCC(C#N)(c2cc(OC)c(OC)c(OC)c2)C(C)C)cc1OC (configuration not stated) [GALLOPAMIL]
AC50 [10]: > 30 µM

CC(C)C(=O)c1c(C(C)C)nn2ccccc12 [IBUDILAST]
AC50 [10]: > 30 µM

CCC(C(=O)O)c1ccc(N2Cc3ccccc3C2=O)cc1 (configuration not stated) [INDOBUFEN]
AC50 [10]: > 30 µM

CC(C)(C)c1cc(C(C)(C)C)c(NC(=O)c2c[nH]c3ccccc3c2=O)cc1O [IVACAFTOR]
AC50 [9]: > 10 µM | AC50 (Histamine H2 receptor): > 10 µM

CC(C)OC(=O)CCC/C=C\C[C@@H]1[C@@H](CC[C@@H](O)CCc2ccccc2)[C@H](O)C[C@@H]1O [LATANOPROST]
AC50 [5]: > 30 µM | AC50 [6]: > 30 µM

COC(=O)C1=C(C)NC(C)=C(C(=O)OC(C)(C)CN(C)CCC(c2ccccc2)c2ccccc2)C1c1cccc([N+](=O)[O-])c1 (configuration not stated) [LERCANIDIPINE]
AC50 [8]: > 50 µM

CCC1(CC)C(=O)NCC(C)C1=O (configuration not stated) [METHYPRYLON]
AC50 [5]: > 30 µM | AC50 [6]: > 30 µM

CCOC(=O)[N-]c1cn(N2CCOCC2)n[o+]1 [MOLSIDOMINE]
AC50 [10]: > 30 µM

CCCc1nc(C(C)(C)O)c(C(=O)OCc2oc(=O)oc2C)n1Cc1ccc(-c2ccccc2-c2nnn[nH]2)cc1 [OLMESARTAN MEDOXOMIL]
AC50 [1]: > 50 µM | AC50 [2]: > 30 µM | AC50 (Cannabinoid receptor 1): > 10 µM | AC50 (Glucagon receptor): > 50 µM | AC50 [3]: > 50 µM | AC50 [4]: > 10 µM | AC50 [7]: > 30 µM

N#Cc1ccc([C@H]2CCc3cncn32)c(F)c1 [OSILODROSTAT]
AC50 [1]: > 10 µM | AC50 (Cannabinoid receptor 1): > 10 µM | AC50 [3]: > 10 µM | AC50 [4]: > 10 µM | AC50 [9]: > 10 µM | AC50 (Histamine H2 receptor): > 10 µM

Clc1ccc(CCCOCCCN2CCCCC2)cc1 [PITOLISANT]
AC50 [8]: 32 µM

CN1CCC(=C2c3ccccc3CCc3sccc32)CC1 [PIZOTYLINE]
AC50 [5]: > 30 µM | AC50 [6]: > 30 µM | AC50 [9]: 0.059 µM

CCCN(CCC)C(=O)C(CCC(=O)O)NC(=O)c1ccccc1 (configuration not stated) [PROGLUMIDE]
AC50 [1]: > 30 µM | AC50 [2]: > 30 µM | AC50 (Glucagon receptor): > 30 µM | AC50 [3]: > 30 µM | AC50 [9]: > 10 µM | AC50 [7]: > 30 µM | AC50 (Histamine H2 receptor): > 10 µM

CN1C(=O)C(O)N=C(c2ccccc2)c2cc(Cl)ccc21 (configuration not stated) [TEMAZEPAM]
AC50 [1]: > 30 µM | AC50 [2]: > 30 µM | AC50 (Glucagon receptor): > 30 µM | AC50 [3]: > 30 µM | AC50 [9]: > 10 µM | AC50 [7]: > 30 µM | AC50 (Histamine H2 receptor): > 10 µM

CCN(CC)C(=O)N[C@H]1C[C@@H]2c3cccc4[nH]cc(c34)C[C@H]2N(C)C1 [TERGURIDE]
AC50 [5]: > 30 µM | AC50 [6]: > 30 µM

C/C(O)=C(\C#N)C(=O)Nc1ccc(C(F)(F)F)cc1 [TERIFLUNOMIDE]
AC50 [8]: > 50 µM | AC50 [5]: > 30 µM | AC50 [6]: > 30 µM

CC(CC(c1ccccc1)c1ccccc1)NC(C)(C)C (configuration not stated) [TERODILINE]
AC50 [8]: 8.65 µM

CN1CCN(CC/C=C2/c3ccccc3Sc3ccc(S(=O)(=O)N(C)C)cc32)CC1 [THIOTHIXENE]
AC50 [1]: > 30 µM | AC50 [2]: > 30 µM | AC50 (Cannabinoid receptor 1): > 10 µM | AC50 (Glucagon receptor): > 30 µM | AC50 [3]: > 30 µM | AC50 [4]: 0.455 µM | AC50 [7]: > 30 µM | AC50 (Histamine H2 receptor): 0.145 µM

COc1cc2c(N)nc(N3CCN(C(=O)OCC(C)(C)O)CC3)nc2c(OC)c1OC [TRIMAZOSIN]
AC50 [10]: > 30 µM

O=C(NCCNCC(O)COc1ccc(O)cc1)N1CCOCC1 (configuration not stated) [XAMOTEROL]
AC50 [5]: > 30 µM | AC50 [6]: > 30 µM
